Like-named read-outs stand apart in the source and are kept apart here.
Target: T1, human C5a receptor (CD88) (Homo sapiens, UniProt P21730)
T1 construct: expressed in transfected cells; host or cells: rat basophilic leukemia (RBL) cells, stably transfected
T1 sequence (P21730 1-350): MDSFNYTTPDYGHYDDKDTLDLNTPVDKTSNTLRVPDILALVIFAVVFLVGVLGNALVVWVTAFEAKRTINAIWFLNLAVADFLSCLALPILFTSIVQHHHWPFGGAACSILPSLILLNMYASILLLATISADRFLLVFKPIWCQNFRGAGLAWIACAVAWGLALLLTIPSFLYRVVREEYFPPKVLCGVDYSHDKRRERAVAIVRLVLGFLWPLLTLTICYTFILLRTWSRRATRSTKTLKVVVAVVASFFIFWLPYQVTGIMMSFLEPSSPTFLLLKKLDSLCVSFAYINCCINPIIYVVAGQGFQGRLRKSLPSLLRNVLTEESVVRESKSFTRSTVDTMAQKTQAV
Assay: C5a induced enzyme (glucosaminidase) release assay in RBL cells expressing the human C5a receptor (Example 28)
Type: cell-based
Conditions: RBL cells with human C5aR
Procedure: Basophile leukemia cells from rats (RBL), which express the human C5a receptor (CD88), are cultivated in DMEM with 10% fetal calf serum, 100 U/ml penicillin, 100 μg/ml streptomycin and 2 mM glutamin (all constituents are from Biochrome, Berlin) at 37° C. and with 10% CO2 until a confluent layer is obtained. All following details refer to a tissue culture flask with 75 cm^2 surface. The used up medium is removed. The cells are washed with 10 ml PBS (Dulbecco's PBS, Biochrome) and then covered with 3 ml cell dissociation solution (CDS, Sigma). The cells are incubated for 1 minute at room temperature. Then the CDS is removed and the cells are incubated for further 10-15 minutes at 37° C. to detach the cells completely from the flask. 20 μl solution of the compound to be testet are used in the assay. […] The dilution series are prepared in ⅓ or ½ steps. […] The cells are counted and centrifuged (200 g, 10 min). The cell pellet is taken up with pre-heated HAG-CM, and the cell density is adjusted to 2×10^6 Zellen/ml. The cells are incubated for 5 minutes at 37° C. 2.7 μl of a cytochalasin B solution (1000 μg/ml in DMSO, Sigma) are added per ml cell suspension. The Zellen are incubated for another 3 min at 37° C. Then, 75 μl of the cell suspension are added to the 20 μl solution containing the compounds to be tested. […] The cells are again incubated for 10 minutes at 37° C. […] After this the plates are put on ice and centrifuged for 3 minutes at 1200×g and 4° C. […] The plate is incubated for 1 hour at 37° C. […] The IC50 value is determined by solving the four parameter equation y=((A−D)/(1+(x/C)^B))+D.

[1] = inhibition of C5a induced enzyme release, read-out: Activity-range (antagonistic activity, IC50 enzyme release)
[2] = read-out: IC50 for the inhibition of C5a induced enzyme release

Compound	IC50 [1] [nM]	IC50 [2] [nM]
CCc1c(N)cc(Cl)c(CC)c1NC(=O)N(c1ccc(C(C)C)cc1)C1CCSc2ccccc21 (stereo not shown) [compound 101, 3-(3-amino-5-chloro-2,6-diethyl-phenyl)-1-(4-isopropyl-phenyl)-1-thiochroman-4-yl-urea]	200 to 5000	–
CCc1c(N)cc(Cl)c(CC)c1NC(=O)N(c1ccc2[nH]ccc2c1)[C@@H](C)c1ccc(Cl)cc1 [compound 141, (S)-3-(3-amino-5-chloro-2,6-diethyl-phenyl)-1-[1-(4-chloro-phenyl)-ethyl]-1-(1H-indol-5-yl)-urea]	< 60	–
CCc1c(N)cc(Cl)c(CC)c1NC(=O)N(Cc1ccc(Cl)cc1)c1ccc(OC)c2nc(C)c(C)nc12 [compound 130, 3-(3-amino-5-chloro-2,6-diethyl-phenyl)-1-(4-chloro-benzyl)-1-(8-methoxy-2,3-dimethyl-chinoxalin-5-yl)-urea]	200 to 5000	–
CCc1c(N)cc(Cl)c(CC)c1NC(=O)N(c1ccc(C(C)C)cc1)[C@@H](C)c1ccc(C)cc1 [(S)-3-(3-Amino-5-chlor-2,6-diethyl-phenyl)-1-(4-isopropyl-ph]	–	32
CCc1c(N)cc(Cl)c(CC)c1NC(=O)N(c1ccc(C(C)C)cc1)C1CCc2ccccc21 (stereo not shown) [compound 84, 3-(3-amino-5-chloro-2,6-diethyl-phenyl)-1-indane-1-yl-1-(4-isopropyl-phenyl)-urea]	200 to 5000	–
CCc1ccc(N(C(=O)Nc2c(CC)c(N)cc(Cl)c2CC)[C@@H](C)c2ccc(Cl)cc2)cc1F	–	35
CCc1ccc(N)c(CC)c1NC(=O)N(c1ccc(C(C)C)cc1)[C@@H](C)c1ccc(C)cc1 [compound 69, (S)-3-(3-amino-2,6-diethyl-phenyl)-1-(4-isopropyl-phenyl)-1-(1-p-tolyl-ethyl)-urea]	60 to 200	–
CCc1ccc(N)c(CC)c1NC(=O)N(c1ccc(C(C)C)cc1)[C@@H](C)c1ccc(OC)cc1 [compound 71, (S)-3-(3-amino-2,6-diethyl-phenyl)-1-(4-isopropyl-phenyl)-1-[1-(4-methoxy-phenyl)-ethyl]-urea]	60 to 200	–
CCc1c(N)cc(Cl)c(CC)c1NC(=O)N(Cc1ccccc1)c1ccc(C(C)C)cc1 [compound 43, 3-(3-amino-5-chloro-2,6-diethyl-phenyl)-1-benzyl-1-(4-isopropyl-phenyl)-urea]	200 to 5000	–
CCc1c(N)cc(Cl)c(CC)c1NC(=O)N(Cc1ccc(OC)cc1)c1ccc2c(c1)CCC2 [compound 44, 3-(3-amino-5-chloro-2,6-diethyl-phenyl)-1-indane-5-yl-1-(4-methoxy-benzyl)-urea]	200 to 5000	–
CCc1ccc(N(Cc2ccc(C)cc2)C(=O)Nc2c(CC)c(N)cc(Cl)c2CC)cc1 [compound 53, 3-(3-amino-5-chloro-2,6-diethyl-phenyl)-1-(4-ethyl-phenyl)-1-(4-methyl-benzyl)-urea]	60 to 200	–
COc1ccc(CN(C(=O)Nc2c(C(C)C)ccc(NC(C)=O)c2C(C)C)c2ccc(C(C)C)cc2)cc1 [compound 27, N-{2,4-diisopropyl-3-[3-(4-isopropyl-phenyl)-3-(4-methoxy-benzyl)-ureido]-phenyl}-acetamide]	> 5000	–
CCc1ccc(N)c(CC)c1NC(=O)N(c1ccc(C(C)C)cc1)[C@H](C)c1ccc(OC)cc1 [compound 70, (R)-3-(3-amino-2,6-diethyl-phenyl)-1-(4-isopropyl-phenyl)-1-[1-(4-methoxy-phenyl)-ethyl]-urea]	200 to 5000	–
CCc1c(N)cc(Cl)c(CC)c1NC(=O)N(c1ccc(C(C)C)cc1)[C@@H]1CCCc2ccccc21 [compound 41, (R)-3-(3-amino-5-chloro-2,6-diethyl-phenyl)-1-(4-isopropyl-phenyl)-1-(1,2,3,4-tetrahydro-naphthaline-1-yl)-urea]	200 to 5000	–
CCc1c(N)cc(Cl)c(CC)c1NC(=O)N(c1ccc(C(C)C)cc1)[C@@H](C)c1ccc(F)cc1 [compound 81, (S)-3-(3-amino-5-chloro-2,6-diethyl-phenyl)-1-[1-(4-fluor-phenyl)-ethyl]-1-(4-isopropyl-phenyl)-urea]	–	38
CCc1c(N)cc(Cl)c(CC)c1NC(=O)N(Cc1cnc(OC)nc1OC)c1ccc(C(C)C)cc1 [compound 77, 3-(3-amino-5-chloro-2,6-diethyl-phenyl)-1-(2,4-dimethoxy-pyrimidin-5-ylmethyl)-1-(4-isopropyl-phenyl)-urea]	200 to 5000	–

Compound	IC50 [1] [nM]	IC50 [2] [nM]
CCc1c(N)cc(Cl)c(CC)c1NC(=O)N(Cc1ccc(C)cc1)c1ccc(C(C)C)cc1 [compound 34, 3-(3-amino-5-chloro-2,6-diethyl-phenyl)-1-(4-isopropyl-phenyl)-1-(4-methyl-benzyl)-urea]	60 to 200	–
CCc1c(N)cc(Cl)c(CC)c1NC(=O)N(c1ccc(C(C)C)cc1)C1CCOc2ccccc21 (stereo not shown) [compound 89, 3-(3-amino-5-chloro-2,6-diethyl-phenyl)-1-chroman-4-yl-1-(4-isopropyl-phenyl)-urea]	200 to 5000	–
CCc1c(Cl)cc(NCC(N)=O)c(CC)c1NC(=O)N(Cc1ccc(OC)cc1)c1ccc(C(C)C)cc1 [compound 46, 2-{5-chloro-2,4-diethyl-3-[3-(4-isopropyl-phenyl)-3-(4-methoxy-benzyl)-ureido]-phenylamino}-acetamide]	200 to 5000	–
CCc1ccc(N)c(CC)c1NC(=O)N(Cc1ccc(C)cc1)c1ccc(C(C)C)cc1 [compound 39, 3-(3-amino-2,6-diethyl-phenyl)-1-(4-isopropyl-phenyl)-1-(4-methyl-benzyl)-urea]	200 to 5000	–
CCc1ccc(N(Cc2ccc(C)nc2)C(=O)Nc2c(CC)ccc(N)c2CC)cc1 [compound 107, 3-(3-amino-2,6-diethyl-phenyl)-1-(4-ethyl-phenyl)-1-(6-methyl-pyridin-3-ylmethyl)-urea]	200 to 5000	–
CCc1c(N)cc(Cl)c(CC)c1NC(=O)N(Cc1ccc(C)nc1)c1ccc(OC)cc1F [compound 124, 3-(3-amino-5-chloro-2,6-diethyl-phenyl)-1-(2-fluoro-4-methoxy-phenyl)-1-(6-methyl-pyridin-3-ylmethyl)-urea]	200 to 5000	–
CCc1ccc(N(Cc2ccc(-n3cccn3)cc2)C(=O)Nc2c(CC)c(N)cc(Cl)c2CC)cc1 [compound 110, 3-(3-amino-5-chloro-2,6-diethyl-phenyl)-1-(4-ethyl-phenyl)-1-(4-pyrazol-1-yl-benzyl)-urea]	200 to 5000	–
CCc1c(Cl)cc(NCc2nccn2C)c(CC)c1NC(=O)N(Cc1ccc(OC)cc1)c1ccc(C(C)C)cc1 [compound 38, 3-{3-chloro-2,6-diethyl-5-[(1-methyl-1H-imidazol-2-ylmethyl)-amino]-phenyl}-1-(4-isopropyl-phenyl)-1-(4-methoxy-benzyl)-urea]	200 to 5000	–
CCc1ccc(N(Cc2ccc(N)cc2)C(=O)Nc2c(CC)c(N)cc(Cl)c2CC)cc1 [compound 116, 1-(4-amino-benzyl)-3-(3-amino-5-chloro-2,6-diethyl-phenyl)-1-(4-ethyl-phenyl)-urea]	200 to 5000	–
CCc1ccc(N(Cc2cnn(CC)c2)C(=O)Nc2c(CC)c(N)cc(Cl)c2CC)cc1 [compound 91, 3-(3-amino-5-chloro-2,6-diethyl-phenyl)-1-(4-ethyl-phenyl)-1-(1-ethyl-1H-pyrazol-4-ylmethyl)-urea]	200 to 5000	–
CCc1ccc(N(Cc2ccc(Br)cc2)C(=O)Nc2c(CC)c(N)cc(Cl)c2CC)cc1 [compound 99, 3-(3-amino-5-chloro-2,6-diethyl-phenyl)-1-(4-bromo-benzyl)-1-(4-ethyl-phenyl)-urea]	< 60	–
CCc1ccc(N)c(CC)c1NC(=O)N(Cc1ccc(Cl)cc1)c1ccc(NC)cc1 [compound 119, 3-(3-amino-2,6-diethyl-phenyl)-1-(4-chloro-benzyl)-1-(4-methylamino-phenyl)-urea]	60 to 200	–
CCc1ccc(N)c(CC)c1NC(=O)N(Cc1ccc(OC)nc1)c1ccc(C(C)C)cc1 [compound 48, 3-(3-amino-2,6-diethyl-phenyl)-1-(4-isopropyl-phenyl)-1-(6-methoxy-pyridin-3-ylmethyl)-urea]	200 to 5000	–
CCNc1ccc(CC)c(NC(=O)N(Cc2ccc(OC)cc2)c2ccc(C(C)C)cc2)c1CC [compound 142, 3-(2,6-diethyl-3-ethylamino-phenyl)-1-(4-isopropyl-phenyl)-1-(4-methoxy-benzyl)-urea]	> 5000	–
CCc1c(N)cc(Cl)c(CC)c1NC(=O)N(Cc1ccc(Cl)cn1)c1ccc(C(C)C)cc1 [compound 105, 3-(3-amino-5-chloro-2,6-diethyl-phenyl)-1-(5-chloro-pyridin-2-ylmethyl)-1-(4-isopropyl-phenyl)-urea]	200 to 5000	–

Source: patent publication US8071810B2, “C5a receptor antagonists” (Jerini AG, priority 2005, dated 2011)
